Activity calls are given as the source filed them.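 How the source made its calls: active means mean IC50 at or below 10 µM; inactive means the rest.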
test system: H9c2 cardiomyocytes, H2O2 protection, ATPLite viability, 2 h; experiment: H2O2-induced H9c2 cell death suppression – ATPLite luminescence, set 2, dose response (AID 602211);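 further: potency is for protection so actives keep ATP signal up against peroxide killing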

Row | SMILES | IC50
1 | CC(=O)Nc1cc(-c2ccc(C(=O)N3CCOCC3)cc2)cn2c(-c3ccc(C(C)=O)cc3)cnc12 | > 79 µM (inactive)
2 | CCOC(=O)C1CCN(c2cc3c(cc2NC(=O)c2ccccc2Cl)n(C)c(=O)n3C)CC1 | 5.6 µM
3 | COc1ccc(-n2c(/C=C/c3ccc(O)cc3)nc3ccccc3c2=O)cc1 | 6.21 µM
4 | O=C(Nc1cccc2cccnc12)c1ccc2sc([C@H]3C[C@H](O)[C@@H](CO)O3)nc2c1 | 4.33 µM
5 | CCN1C(=O)/C(=C/c2nc3ccccc3c(=O)[nH]2)c2ccccc21 | 7.84 µM
6 | NC(=O)c1cc2ccccc2o/c1=N\NC(=O)c1ccc(F)cc1 | 4.67 µM
7 | COc1cccc(C(=O)Nc2cccc(-c3nnc(-c4ccco4)o3)c2)c1 | > 79 µM (inactive)
8 | CC(=O)c1cccc(-c2cnc3c(NC=O)cc(-c4ccc(F)cc4)cn23)c1 | 7.76 µM
9 | N#Cc1ccccc1S(=O)(=O)N1CCN(c2nc(-c3cccnc3)nc3ccccc23)CC1 | > 79 µM (inactive)
10 | COC(=O)c1cc(NC(=O)Nc2cc(OC)ccc2OC)cc(C(=O)OC)c1 | 22.3 µM (inactive)
11 | Cn1c(=O)[nH]c(=O)c2c1nc(Br)n2CC(O)COc1ccc(Cl)cc1 (stereo not drawn) | 2.44 µM
12 | COc1ccc(C(=O)COC(=O)C(CCCCN2C(=O)C3C4C=CC(C4)C3C2=O)N2C(=O)C3C4C=CC(C4)C3C2=O)cc1 (stereo not drawn) | 4.84 µM
13 | CC1(C)Oc2ccc3ccc(=O)oc3c2/C(=C/Nc2ccccn2)C1=O | > 79 µM (inactive)
14 | CS(=O)(=O)Nc1cccc(NC(=O)c2cccc3c(-c4cccc(C(N)=O)c4)coc23)c1 | 3.61 µM
15 | COc1ccc(CCNc2nc(-c3cccnc3)nc3ccccc23)cc1OC | 2.28 µM
16 | O=C(CCCN1C(=O)c2cccc3cccc(c23)C1=O)N1CCN(c2ccccc2O)CC1 | 4.54 µM
17 | C[C@@H]1CN([C@H](C)CO)S(=O)(=O)c2ccc(C#Cc3ccccc3F)cc2O[C@H]1CN(C)C(=O)c1ccc2c(c1)OCO2 | > 79 µM (inactive)
18 | CC(=NO)C1CCC2C3CCC4CC(=NO)CCC4(C)C3C(C)(O)CC12C (stereo not drawn) | > 79 µM (inactive)
19 | COc1cc(NC(=O)c2csc(-c3ccncc3)n2)cc(C(=O)Nc2cccc(C(F)(F)F)c2)c1 | 2.7 µM
20 | O=C1OCCN1C(=O)[C@H]1[C@H](c2ccc([N+](=O)[O-])cc2)C(c2ccc(F)cc2)=NN1c1ccc(Br)cc1 | 3.09 µM
21 | CNC(=O)c1cccc(NC(=O)c2cc(-c3ccccc3)nc3c2cnn3C(C)C)c1 | > 79 µM (inactive)
22 | O=CNc1cc(-c2ccc(C(=O)NC3CC3)cc2)cn2c(-c3ccccc3)cnc12 | 10.3 µM (inactive)
23 | COc1cccc(-c2cnc3c(NC=O)cc(-c4cccc(NC(C)=O)c4)cn23)c1 | 5.98 µM
24 | CCOC(=O)C1=C(COC(=O)c2cc(OC)c(OC)c(OC)c2)NC(=O)NC1C (stereo not drawn) | 5.68 µM

Row | SMILES | IC50
25 | Cc1ccc(NC(=O)c2cc(=O)c3ccccc3o2)cc1S(=O)(=O)N1CCOCC1 | 5.15 µM
26 | O=C(Nc1cccc(NC(=O)c2ccc([N+](=O)[O-])o2)c1)c1ccco1 | 1.58 µM
27 | Brc1ccc(-c2ccc(/C=N/Nc3nc(N4CCOCC4)nc(N4CCOCC4)n3)o2)cc1 | 3.61 µM
28 | O=C(NCCc1ccccc1Cl)c1ccc2nc3ccccc3c(=O)n2c1 | 7.16 µM
29 | O=C(/C=C\c1cn(-c2ccccc2)nc1-c1ccc2c(c1)OCCO2)N1CCOCC1 | 7.49 µM
30 | O=C(c1cc2nc(-c3ccccc3)cc(-c3ccccc3)n2n1)N1CCN(C(=O)c2ccco2)CC1 | 1.25 µM
31 | COc1cc(-c2cc3nc(NCCOc4ccccc4)ccn3n2)cc(OC)c1OC | 7.16 µM
32 | COc1cc(/C=N/NC(=O)c2ccccc2)ccc1OS(=O)(=O)c1ccccc1 | 6.29 µM
33 | COc1ccc(OCC(O)Cn2c(Br)nc3c2c(=O)[nH]c(=O)n3C)cc1 (stereo not drawn) | 15.9 µM (inactive)
34 | COc1ccc(C(=O)COC(=O)Cn2[nH]c(=O)c3ccccc3c2=O)c(OC)c1 | 27.2 µM (inactive)
35 | CC(=O)c1ccc(-c2cnc3c(NC=O)cc(-c4cccc(C(=O)N(C)C)c4)cn23)cc1 | 18.9 µM (inactive)
36 | COc1ccc(NC(=O)c2cc(-c3ccc(OC)c(OC)c3)nc3ccccc23)c(OC)c1 | 8.09 µM
37 | COc1ccc(-c2cnc3c(NC=O)cc(-c4cccc(NS(C)(=O)=O)c4)cn23)cc1OC | 5.59 µM
38 | CCOC(=O)C1=C(C)NC(C)=C(C(=O)OCC)C1C(=O)OCC(=O)NC(C)C | 12.9 µM (inactive)
39 | Cc1ccc(-c2csc(N3CCC[C@@H]3C(=O)NCCn3c(-c4ccncc4)nc4ccccc43)n2)cc1 | 2.83 µM
40 | C[C@@H]1CN([C@@H](C)CO)C(=O)c2cc(NC(=O)Nc3ccccc3)ccc2O[C@H]1CN(C)C(=O)Nc1cccc2ccccc12 | 8.2 µM
41 | CCN(CC)C(=O)c1ccc2c3c(cccc13)C(=O)N(CCc1ccc(OC)c(OC)c1)C2=O | > 79 µM (inactive)
42 | N#Cc1cnn2cc(-c3ncc(C(F)(F)F)cc3Cl)cnc12 | 29.9 µM (inactive)
43 | COC(=O)/C(=C(O)\C=C\c1ccccc1[N+](=O)[O-])c1nc2ccccc2[nH]1 | 7.96 µM
44 | Cc1ccc(S(=O)(=O)N2CCN(C(=O)c3cc(=O)[nH]c4ccccc34)CC2)c(C)c1 | 2.24 µM
45 | Cc1ccc(C(C(=O)NCc2ccccc2)N(Cc2ccco2)C(=O)c2snc(C(N)=O)c2N)o1 (stereo not drawn) | 1.8 µM
46 | COc1ccc(OC)c(/C=N/NC(=O)c2cc3c(OC)c(OC)ccc3[nH]2)c1 | 3.48 µM
47 | Cc1cc(C)cc(OCC(=O)Nc2cccc(-c3nc4ncccc4o3)c2)c1 | > 79 µM (inactive)
48 | COc1cc(NC(=O)c2cc3ccccc3cc2OC)ccc1NC(=O)c1cccs1 | 3.59 µM

Row | SMILES | IC50
49 | COc1cc(-c2cc(NC=O)c3ncc(-c4ccc(C(C)=O)cc4)n3c2)ccc1O | 3.61 µM
50 | COc1cc(/C=C/c2nc(-c3ccccc3O)n[nH]2)cc(OC)c1OC | > 79 µM (inactive)
51 | COc1ccc(-n2cc(-c3ccccc3)c3c(N4CCOCC4)ncnc32)cc1 | 4.02 µM
52 | S=C(Nc1ccc(N2CCOCC2)cc1)Nc1ccc2nc(-c3ccco3)c(-c3ccco3)nc2c1 | 10.7 µM (inactive)
53 | CC12C=CC(=O)CC1CCC1C2CCC2(C)C(O)C(O)CC12 (stereo not drawn) | 2.62 µM
54 | C[C@H](CO)N1C[C@H](C)[C@@H](CN(C)S(=O)(=O)c2cccs2)Oc2ccc(NC(=O)Nc3ccccc3)cc2C1=O | 16 µM (inactive)
55 | Cc1ccc(C)c(C(=O)Nc2cc(C)nn2-c2nc(C)cc(C)n2)c1 | 65.6 µM (inactive)
56 | COC(=O)c1cc(OC)c(OC)cc1NC(=O)c1ccc(C)o1 | 3.98 µM
57 | CC(C)(C)C(=O)Nc1ccc(C(=O)N/N=C/c2ccccc2OC(=O)c2ccccc2)cc1 | 6.72 µM
58 | CCC(=O)N1CCN(c2ccccc2NC(=O)c2ccc(-c3cccc([N+](=O)[O-])c3)o2)CC1 | 1.99 µM
59 | CC(=O)c1ccc(-c2cnc3c(NC=O)cc(-c4ccc(C(=O)NC5CC5)cc4)cn23)cc1 | 3.38 µM
60 | Cc1cc(NC(=O)c2cccs2)cc(-c2nc3ncccc3o2)c1O | 3.76 µM
61 | COc1cc(C(=O)Nc2nc(-c3cccs3)cs2)cc(OC)c1OC | 1.78 µM
62 | COc1cc(/C=c2\s/c(=C(/C#N)C(=O)N3CCCC3)n(-c3ccccc3)c2=O)ccc1O | 3.2 µM
63 | Brc1ccc(-c2nn3c(-c4ccccn4)nnc3s2)o1 | 27.4 µM (inactive)
64 | O=C(NC1CCCCC1)C(c1ccc2ncccc2c1)N(Cc1ccccc1)C(=O)c1ccc2c(c1)OCCO2 (stereo not drawn) | 5.54 µM
65 | COc1ccc(C(C(=O)NC2CCCC2)N(C(=O)c2snc(C(N)=O)c2N)c2cccc(O)c2)cc1 (stereo not drawn) | 12.7 µM (inactive)
66 | CCC(=O)Oc1cccc(C(=O)Nc2ccc(-c3nnc(-c4ccco4)o3)cc2)c1 | > 79 µM (inactive)
67 | O=[N+]([O-])c1ccc(Nc2nc(N/N=C/c3cccc(F)c3)nc(N3CCCC3)n2)cc1 | 9.66 µM
68 | CCC(=O)Nc1cccc(-c2nnc(-c3cccc(NC(=O)CC)c3)o2)c1 | 4.1 µM
69 | CC(C)(C)OC(=O)CNC(=O)c1[nH]cnc1C(=O)NCC(=O)OCc1ccccc1 | 0.747 µM
70 | COc1ccc(C(=O)O/N=C(/c2ccccc2)c2ccncc2)cc1OC | 10.7 µM (inactive)
71 | CNC(=O)c1ccc(-c2sc3nc(N4CCOCC4)c4c(c3c2N)CC(C)(C)OC4)o1 | 6.13 µM
72 | O=c1oc2ccc3ccccc3c2cc1-c1nnc(-c2ccccc2)o1 | 17.5 µM (inactive)

Row | SMILES | IC50
73 | Nc1cc2[nH]c(=O)c3ccccc3c2cc1[N+](=O)[O-] | 5.96 µM
74 | COc1cc(-c2cc(NC=O)c3ncc(-c4ccc(C(C)=O)cc4)n3c2)cc(OC)c1OC | 3.51 µM
75 | CC(=O)Nc1cc(-c2ccc(C(=O)NC3CC3)cc2)cn2c(-c3cccc(C(C)=O)c3)cnc12 | 9.83 µM
76 | O=C(c1cc(=O)[nH]c2ccccc12)N1CCN(S(=O)(=O)c2ccc3ccccc3c2)CC1 | 2.89 µM
77 | Cc1cccc(NC(=O)c2nc[nH]c2C(=O)NCCCNC(=O)c2[nH]cnc2C(=O)Nc2cccc(C)c2)c1 | 0.729 µM
78 | CCOC(=O)c1nn(-c2cccc(OC)c2)c2nc(Nc3ccccc3)cc(=O)n12 | > 79 µM (inactive)
79 | NC(=O)c1nsc(C(=O)N(Cc2ccco2)C(C(=O)NCc2ccccc2)c2ccc(O)cc2)c1N (stereo not drawn) | 9.87 µM
80 | COc1ccc(-c2cc(NC=O)c3ncc(-c4ccccc4)n3c2)cc1OC | > 79 µM (inactive)
81 | COc1ccccc1-c1cc(NC(C)=O)c2ncc(-c3cccc(C(C)=O)c3)n2c1 | 11.1 µM (inactive)
82 | COc1ccccc1NC(=O)c1cc(-c2cc(OC)c(OC)c(OC)c2)nc2ccccc12 | 2.88 µM
83 | Cc1c(O)ccc2c(-c3ccccc3)cc(=O)oc12 | > 79 µM (inactive)
84 | CS(=O)(=O)c1ccc(-c2cnc3c(NC=O)cc(-c4ccsc4)cn23)cc1 | 12.5 µM (inactive)
85 | O=C(NCCc1c[nH]c2ccccc12)C(=O)NCC(c1ccco1)N1CCN(c2ccccc2F)CC1 (stereo not drawn) | 5.64 µM
86 | CCOC(=O)c1cccc(Nc2nc(-c3cccnc3)nc3ccccc23)c1 | > 79 µM (inactive)
87 | O=C(CN1CCCCC1)Nc1nc(-c2ccc(F)c(F)c2)cs1 | > 79 µM (inactive)
88 | COc1ccc2[nH]c(=O)c(CN(Cc3cccnc3)S(=O)(=O)c3ccccc3F)cc2c1 | 0.43 µM
89 | O=C(C[C@@H]1C/C=C/CC[C@@H](Cc2ccc(F)cc2)C(=O)O[C@@H](c2ccccc2)CNC1=O)NCCO | 10.9 µM (inactive)
90 | Cc1nn(-c2ccccc2)nc1C(=O)Nc1cccc(C(=O)NC2CC2)c1 | 4.37 µM
91 | COc1ccc(COc2cc(-c3cccc(OC)c3)nc3ccc(NC(=O)c4cccnc4)cc23)cc1 | 2.36 µM
92 | CCOC(=O)C1=C(COC(=O)/C=C/c2ccc(F)cc2)NC(=O)NC1C (stereo not drawn) | 5.54 µM
93 | COc1ccc(-c2cc(C(F)(F)F)n3nc(C(=O)N4CCN(C(=O)c5ccco5)CC4)cc3n2)cc1 | 9.56 µM

Reference: PubChem BioAssay AID602211 (Sanford-Burnham Center for Chemical Genomics, 2012)
